# Reference: patent publication US4229204A, “Trifluoromethylphenyl isoxazolyl benzoates” (Monsanto Company, priority 1978, dated 1980)
# What was measured:
# Type in all cases: in vivo
# Smartweed [1] = assay: Post-emergent herbicidal test; details: 4 WAT, 11.2 kg/h
# Procedure: (§1) The post-emergent tests were conducted as follows:
# (§2) The active ingredients are applied in spray form to two or three week old specimens of various plant species. The spray, a solution or wettable powder suspension containing the appropriate rate of active ingredient to give the desired test rate and a surfactant, is applied to the plants.
# (§3) The compounds were also tested by utilizing the above procedure on the following plant species: […]
# Johnsongrass [2] = assay: Post-emergent herbicidal test; details: 4 WAT, 11.2 kg/h
# Procedure: as §1, §2, §3
# Quackgrass [3] = assay: Post-emergent herbicidal test; details: 4 WAT, 11.2 kg/h
# Procedure: as §1, §2, §3
# Cocklebur [4] = assay: Post-emergent herbicidal test; details: 4 WAT, 11.2 kg/h
# Procedure: as §1, §2, §3
# Lambsquarters [5] = assay: Post-emergent herbicidal test; details: 4 WAT, 11.2 kg/h
# Procedure: as §1, §2, §3
# Downy Brome [6] = assay: Post-emergent herbicidal test; details: 4 WAT, 11.2 kg/h
# Procedure: as §1, §2, §3
# Velvetleaf [7] = assay: Post-emergent herbicidal test; details: 4 WAT, 11.2 kg/h
# Procedure: as §1, §2, §3
# Canada Thistle [8] = assay: Post-emergent herbicidal test; details: 4 WAT, 11.2 kg/h
# Procedure: as §1, §2, §3
# Barnyardgrass [9] = assay: Post-emergent herbicidal test; details: 4 WAT, 11.2 kg/h
# Procedure: as §1, §2, §3
# Morningglory [10] = assay: Post-emergent herbicidal test; details: 4 WAT, 11.2 kg/h
# Procedure: as §1, §2, §3
# Yellow Nutsedge [11] = assay: Post-emergent herbicidal test; details: 4 WAT, 11.2 kg/h
# Procedure: as §1, §2, §3
# Wild Buckwheat = assay: Pre-emergent herbicidal test; details: 2 WAT
# Procedure: (§4) The pre-emergent test was conducted as follows:
# (§5) A good grade of top soil was placed in aluminum pans and compacted to a depth of three-eighths to one-half inch from the top of the pan. On the top of the soil was placed a predetermined number of seeds or vegetative propagules of various plant species which were pressed into the soil surface. The soil required to level fill the pans after seeding or adding vegetative propagules was weighed into a pan. A known amount of the active ingredient applied in a solvent or as a wettable powder and the soil were thoroughly mixed, and used as a cover layer for prepared pans.
# (§6) The herbicidal rating was obtained by means of a fixed scale based on the percent injury of each plant species. The ratings are defined as follows: […]
# Panicum Spp. = assay: Pre-emergent herbicidal test; details: 2 WAT
# Procedure: as §4, §5, §6
# Hemp Sesbania = assay: Pre-emergent herbicidal test; details: 2 WAT
# Procedure: as §4, §5, §6
# Wheat = assay: Pre-emergent herbicidal test; details: 2 WAT
# Procedure: as §4, §5, §6
# Sugarbeet = assay: Pre-emergent herbicidal test; details: 2 WAT
# Procedure: as §4, §5, §6
# Sorghum = assay: Pre-emergent herbicidal test; details: 2 WAT
# Procedure: as §4, §5, §6
# Soybean = assay: Pre-emergent herbicidal test; details: 2 WAT
# Procedure: as §4, §5, §6
# Crabgrass = assay: Pre-emergent herbicidal test; details: 2 WAT
# Procedure: as §4, §5, §6
# Rice = assay: Pre-emergent herbicidal test; details: 2 WAT
# Procedure: as §4, §5, §6
# Smartweed [12] = assay: Pre-emergent herbicidal test
# Procedure: as §4, §5, §6, §3
# Johnsongrass [13] = assay: Pre-emergent herbicidal test; details: 4 WAT, 11.2 kg/h
# Procedure: as §4, §5, §6, §3
# Quackgrass [14] = assay: Pre-emergent herbicidal test; details: 4 WAT, 11.2 kg/h
# Procedure: as §4, §5, §6, §3
# Cocklebur [15] = assay: Pre-emergent herbicidal test
# Procedure: as §4, §5, §6, §3
# Lambsquarters [16] = assay: Pre-emergent herbicidal test
# Procedure: as §4, §5, §6, §3
# Downy Brome [17] = assay: Pre-emergent herbicidal test
# Procedure: as §4, §5, §6, §3
# Velvetleaf [18] = assay: Pre-emergent herbicidal test
# Procedure: as §4, §5, §6, §3
# Canada Thistle [19] = assay: Pre-emergent herbicidal test; details: 4 WAT, 11.2 kg/h
# Procedure: as §4, §5, §6, §3
# Barnyardgrass [20] = assay: Pre-emergent herbicidal test
# Procedure: as §4, §5, §6, §3
# Morningglory [21] = assay: Pre-emergent herbicidal test
# Procedure: as §4, §5, §6, §3
# Yellow Nutsedge [22] = assay: Pre-emergent herbicidal test; details: 4 WAT, 11.2 kg/h
# Procedure: as §4, §5, §6, §3
# Also: ranges in brackets are in %.
smiles,measurement,setting,value
"CCCCOC(=O)c1ccccc1-c1cc(-c2cccc(C(F)(F)F)c2)no1 [Example 6, n-Butyl 2-[3-[3-(Trifluoromethyl)Phenyl]-5-Isoxazolyl]Benzoate]",herbicidal rating,Smartweed [1],2 (50-74)
same,herbicidal rating,Johnsongrass [2],1 (25-49)
same,herbicidal rating,Quackgrass [3],1 (25-49)
same,herbicidal rating,Cocklebur [4],1 (25-49)
same,herbicidal rating,Lambsquarters [5],1 (25-49)
same,herbicidal rating,Downy Brome [6],0 (0-24)
same,herbicidal rating,Velvetleaf [7],1 (25-49)
same,herbicidal rating,Canada Thistle [8],2 (50-74)
same,herbicidal rating,Barnyardgrass [9],2 (50-74)
same,herbicidal rating,Morningglory [10],2 (50-74)
same,herbicidal rating,Yellow Nutsedge [11],0 (0-24)
same,herbicidal rating,Wild Buckwheat; 0.28 kg/h,3 (75-100)
same,herbicidal rating,Wild Buckwheat; 1.12 kg/h,2 (50-74)
same,herbicidal rating,Wild Buckwheat; 5.60 kg/h,3 (75-100)
same,herbicidal rating,Panicum Spp.; 0.28 kg/h,3 (75-100)
same,herbicidal rating,Panicum Spp.; 1.12 kg/h,1 (25-49)
same,herbicidal rating,Panicum Spp.; 5.60 kg/h,2 (50-74)
same,herbicidal rating,Hemp Sesbania; 0.28 kg/h,1 (25-49)
same,herbicidal rating,Hemp Sesbania; 1.12 kg/h,3 (75-100)
same,herbicidal rating,Hemp Sesbania; 5.60 kg/h,2 (50-74)
same,herbicidal rating,Wheat; 0.28 kg/h,0 (0-24)
same,herbicidal rating,Wheat; 1.12 kg/h,1 (25-49)
same,herbicidal rating,Wheat; 5.60 kg/h,1 (25-49)
same,herbicidal rating,Sugarbeet; 0.28 kg/h,1 (25-49)
same,herbicidal rating,Sugarbeet; 1.12 kg/h,2 (50-74)
same,herbicidal rating,Sugarbeet; 5.60 kg/h,2 (50-74)
same,herbicidal rating,Sorghum; 0.28 kg/h,0 (0-24)
same,herbicidal rating,Sorghum; 1.12 kg/h,1 (25-49)
same,herbicidal rating,Sorghum; 5.60 kg/h,3 (75-100)
same,herbicidal rating,Soybean; 0.28 kg/h,0 (0-24)
same,herbicidal rating,Soybean; 1.12 kg/h,1 (25-49)
same,herbicidal rating,Soybean; 5.60 kg/h,3 (75-100)
same,herbicidal rating,Crabgrass; 0.28 kg/h,3 (75-100)
same,herbicidal rating,Crabgrass; 1.12 kg/h,2 (50-74)
same,herbicidal rating,Crabgrass; 5.60 kg/h,3 (75-100)
same,herbicidal rating,Rice; 0.28 kg/h,2 (50-74)
same,herbicidal rating,Rice; 1.12 kg/h,3 (75-100)
same,herbicidal rating,Rice; 5.60 kg/h,3 (75-100)
same,herbicidal rating,"Smartweed [12]; 2 WAT, 0.28 kg/h",3 (75-100)
same,herbicidal rating,"Smartweed [12]; 2 WAT, 1.12 kg/h",3 (75-100)
same,herbicidal rating,"Smartweed [12]; 2 WAT, 5.60 kg/h",3 (75-100)
same,herbicidal rating,"Smartweed [12]; 4 WAT, 11.2 kg/h",3 (75-100)
same,herbicidal rating,Johnsongrass [13],0 (0-24)
same,herbicidal rating,Quackgrass [14],2 (50-74)
same,herbicidal rating,"Cocklebur [15]; 2 WAT, 0.28 kg/h",0 (0-24)
same,herbicidal rating,"Cocklebur [15]; 2 WAT, 1.12 kg/h",0 (0-24)
same,herbicidal rating,"Cocklebur [15]; 2 WAT, 5.60 kg/h",1 (25-49)
same,herbicidal rating,"Cocklebur [15]; 4 WAT, 11.2 kg/h",1 (25-49)
same,herbicidal rating,"Lambsquarters [16]; 2 WAT, 0.28 kg/h",3 (75-100)
same,herbicidal rating,"Lambsquarters [16]; 2 WAT, 1.12 kg/h",3 (75-100)
same,herbicidal rating,"Lambsquarters [16]; 2 WAT, 5.60 kg/h",3 (75-100)
same,herbicidal rating,"Lambsquarters [16]; 4 WAT, 11.2 kg/h",2 (50-74)
same,herbicidal rating,"Downy Brome [17]; 2 WAT, 0.28 kg/h",2 (50-74)
same,herbicidal rating,"Downy Brome [17]; 2 WAT, 1.12 kg/h",1 (25-49)
same,herbicidal rating,"Downy Brome [17]; 2 WAT, 5.60 kg/h",3 (75-100)
same,herbicidal rating,"Downy Brome [17]; 4 WAT, 11.2 kg/h",3 (75-100)
same,herbicidal rating,"Velvetleaf [18]; 2 WAT, 0.28 kg/h",0 (0-24)
same,herbicidal rating,"Velvetleaf [18]; 2 WAT, 1.12 kg/h",0 (0-24)
same,herbicidal rating,"Velvetleaf [18]; 2 WAT, 5.60 kg/h",2 (50-74)
same,herbicidal rating,"Velvetleaf [18]; 4 WAT, 11.2 kg/h",1 (25-49)
same,herbicidal rating,Canada Thistle [19],3 (75-100)
same,herbicidal rating,"Barnyardgrass [20]; 2 WAT, 0.28 kg/h",3 (75-100)
same,herbicidal rating,"Barnyardgrass [20]; 2 WAT, 1.12 kg/h",3 (75-100)
same,herbicidal rating,"Barnyardgrass [20]; 2 WAT, 5.60 kg/h",3 (75-100)
same,herbicidal rating,"Barnyardgrass [20]; 4 WAT, 11.2 kg/h",3 (75-100)
same,herbicidal rating,"Morningglory [21]; 2 WAT, 0.28 kg/h",1 (25-49)
same,herbicidal rating,"Morningglory [21]; 2 WAT, 1.12 kg/h",1 (25-49)
same,herbicidal rating,"Morningglory [21]; 2 WAT, 5.60 kg/h",3 (75-100)
same,herbicidal rating,"Morningglory [21]; 4 WAT, 11.2 kg/h",3 (75-100)
same,herbicidal rating,Yellow Nutsedge [22],1 (25-49)
